The values that follow come from patent US20210269479A1, “USE OF CY[…] FOR TREATING CANCER” (Hepion Pharmaceuticals, Inc., priority 2020, published 2021).

For the assay, the system named is human precision cut liver slices (PCLS). Put plainly: Biomarker secretion from PCLS into culture medium (ELISA). The format is cell-based. The conditions noted are these: collagen1α1, fibronectin, hyaluronic acid, IL-6, MCP-1. The protocol: PCLS were obtained from 5 human donors who underwent resection of liver cancer. Replicate slices were collected from healthy margins of the resections and cultured for 4 or 6 days depending on the experimental protocol. In the Nonstimulation Protocol slices were cultured for 6 days and treated for the entire period with DMSO vehicle or 5 μM CRV431. In the Stimulation Protocol slices were rested for 1 day and then administered the cytokines, TGFβ and PDGF-BB, for 3 days to stimulate inflammation and fibrosis. DMSO vehicle, CRV431 (1 and 5 μM), Alk5i (10 μM), obeticholic acid (5 μM), elafibranor (5 μM), resmetirom (5 μM), and Aramchol (5 μM) were administered individually as drug treatments in the Stimulation Protocol concurrent with TGFβ+PDGF-BB. Culture medium treatments were replaced daily.
(a) Biomarker secretion. Spent culture medium was collected daily from duplicate slices for each treatment. ELISAs were used to quantify secretion of monocyte chemoattractant protein (MCP-1), interleukin-6 (IL-6), tissue inhibitor of metalloproteinase-1 (TIMP1), hyaluronic acid, fibronectin, and collagen 1α1. For each donor the mean level of biomarker secretion in each treatment group was expressed as a percentage change relative to DMSO vehicle, the percentages averaged for all donors, and finally the mean daily percentage change calculated from all days of evaluation. […]
(An ELISA detects its analyte on a solid surface through an enzyme-linked reagent.)

Each structure is given as a SMILES string. “Also recorded” adds a separate entry of the source.

As for `CC[C@@H]1NC(=O)[C@H]([C@H](O)[C@H](C)CCCCCCNC(C)=O)N(C)C(=O)[C@H](C(C)C)N(C)C(=O)[C@H](CC(C)C)N(C)C(=O)[C@H](CC(C)C)N(C)C(=O)[C@@H](C)NC(=O)[C@H](C)NC(=O)[C@H](CC(C)C)N(C)C(=O)[C@H](C(C)C)NC(=O)[C@H](CC(C)C)N(C)C(=O)[C@@H](C)N(C)C1=O` [CRV431], the “secretion of inflammation and fibrosis biomarkers” value was “reduced secretion of collagen1α1, fibronectin, hyaluronic acid, IL-6, and MCP-1; also recorded: decreased the mean daily secretion and gene expression of all markers”.
